From patent USRE50724E1, “4-membered ring carboxamides used as nematicides” (SYNGENTA CROP PROTECTION AG, priority 2013, dated 2026) come the findings set out here.

For assay [1], the system named is Meloidogyne spp. Nature of the assay: Meloidogyne spp. (root-knot nematode), nematicide, contact activity, preventive: cucumber seed in filter paper pouch. Format: in vivo. The note with it: 288 h, cucumber cv. Toshka seed in pouch, 3000 eggs, twelve days, read-out: reduction of galling compared to the untreated control. Here is the method:
Meloidogyne spp. (Root-Knot Nematode) Nematicide, Contact Activity, Preventive. Filter papers (9 cm×4.5 cm) with a small pocket were placed into plastic pouches (12 cm×6 cm). One cucumber cv. Toshka seed was placed in the centre of the filter paper pocket of all the pouches needed for a test. The cucumber seeds in the pouches were treated with test solutions at 200 ppm by pipetting the solution directly over the cucumber seed in the filter paper pocket in the pouch. Prior to application, the compound solution was prepared at twice the concentration required and the egg suspension is prepared with FORL nutrient solution with 3000 eggs/0.5 ml. After applying all the treatments, 3000 eggs (in 0.5 ml of FORL nutrient solution) were pipetted into the pouches. The pouches were incubated in a moist chamber for twelve days and watered regularly to maintain good filter paper moisture essential for the growing cucumber root system. After this period, the filter paper containing the germinated cucumber seedling was removed from the plastic pouch to assess the number of galls caused by Meloidogyne spp. per root system. Phytotoxicity was measured as a reduction of growth of the emerged cucumber seedling in comparison to the control.

The subject of assay [2] is Heterodera schachtii. Nature of the assay: Heterodera schachtii (sugar beet cyst nematode), nematicide, contact activity: juvenile paralysis in 16-well assay plates. Format: in vivo. Particulars: 200 ppm, approx. 500 juveniles per well, 24 hours incubation at 25° C. in darkness, read-out: nematode immobilization compared to the untreated control. Here is the method:
Heterodera schachtii (Sugar Beet Cyst Nematode), Nematicide, Contact Activity
The tested application rate of each compound was 200 ppm. All solutions were brought to a concentration of 400 ppm, respectively, as they were subsequently diluted by adding the equivalent amount of water containing juvenile nematodes. After preparation of the suspensions, 1 ml of each suspension and concentration was transferred to 16-well assay plates with a total of three replicates per treatment. Approximately 500 juveniles of Heterodera schachtii were added in 1 ml of water to each well. Nematodes in water served as controls. The plates were placed in a dark box and stored at room temperature. Nematode paralysis was determined after 24 hours incubation at 25° C. in darkness.

As to `Cc1ncccc1C(=O)N[C@H]1CC[C@H]1c1ccc(Cl)cc1Cl` [Compound 61.7, N-[(1S,2S)-2-(2,4-dichlorophenyl)cyclobutyl]-2-methylpyridine-3-carboxamide], the values for the pest or weed control at 200 ppm in assay [1] and in assay [2] were more than 80% and more than 75%, respectively.

For `O=C(N[C@H]1CC[C@H]1c1ccc(Cl)cc1Cl)c1ccccc1Br` [Compound 61.8, 2-bromo-N-[(1S,2S)-2-(2,4-dichlorophenyl)cyclobutyl]benzamide], the values for the pest or weed control at 200 ppm in assay [1] and in assay [2] were more than 80% and more than 75%, respectively.

On to `O=C(N[C@H]1CC[C@H]1c1ccc(Cl)cc1)c1c(F)cccc1C(F)(F)F` [Compound 61.41, N-[(1S,2S)-2-(4-chlorophenyl)cyclobutyl]-2-fluoro-6-(trifluoromethyl)benzamide], for which the pest or weed control at 200 ppm in assay [1] is more than 80%; in assay [2], more than 75%.

As for `O=C(N[C@H]1CC[C@H]1c1ccc(Cl)cc1Cl)c1ncccc1Br` [Compound 61.60, 3-bromo-N-[(1S,2S)-2-(2,4-dichlorophenyl)cyclobutyl]pyridine-2-carboxamide], the pest or weed control at 200 ppm in assay [1] is more than 80%; in assay [2], more than 75%.

With `Cc1occc1C(=O)N[C@H]1CC[C@H]1c1ccc(Cl)cc1Cl` [Compound 61.64, N-[(1S,2S)-2-(2,4-dichlorophenyl)cyclobutyl]-2-methylfuran-3-carboxamide], the pest or weed control at 200 ppm was more than 80% in assay [1] and more than 75% in assay [2].

For the compound `O=C(N[C@H]1CC[C@H]1c1ccc(Cl)cc1Cl)c1c(F)cccc1Cl` [Compound 61.66, 2-chloro-N-[(1S,2S)-2-(2,4-dichlorophenyl)cyclobutyl]-6-fluorobenzamide], the pest or weed control at 200 ppm in assay [1] was more than 80%; in assay [2], more than 75%.

Regarding `COc1cccc(F)c1C(=O)N[C@H]1CC[C@H]1c1ccc(Cl)cc1Cl` [Compound 61.68, N-[(1S,2S)-2-(2,4-dichlorophenyl)cyclobutyl]-2-fluoro-6-methoxybenzamide], the results for the pest or weed control at 200 ppm in assay [1] and in assay [2] were more than 80% and more than 75%, respectively.

In the case of `Cc1cccc(F)c1C(=O)N[C@H]1CC[C@H]1c1ccc(Cl)cc1Cl` [Compound 61.69, N-[(1S,2S)-2-(2,4-dichlorophenyl)cyclobutyl]-2-fluoro-6-methylbenzamide], the pest or weed control at 200 ppm in assay [1] is more than 80%; in assay [2] it was more than 75%.

For the compound `Cn1cccc1C(=O)N[C@H]1CC[C@H]1c1ccc(Cl)cc1Cl` [Compound 61.76, N-[(1S,2S)-2-(2,4-dichlorophenyl)cyclobutyl]-1-methylpyrrole-2-carboxamide], the pest or weed control at 200 ppm is more than 80% in assay [1] and more than 75% in assay [2].

As to `Cn1cc(C(=O)N[C@H]2CC[C@H]2c2ccc(Cl)cc2Cl)c(C(F)F)n1` [Compound 61.77, N-[(1S,2S)-2-(2,4-dichlorophenyl)cyclobutyl]-3-(difluoromethyl)-1-methylpyrazole-4-carboxamide], the pest or weed control at 200 ppm in assay [1] was more than 80%; in assay [2] it was more than 75%.

As for `O=C(N[C@H]1CC[C@H]1c1ccc(Cl)cc1Cl)c1ccsc1Cl` [Compound 61.95, 2-chloro-N-[(1S,2S)-2-(2,4-dichlorophenyl)cyclobutyl]thiophene-3-carboxamide], the pest or weed control at 200 ppm is more than 80% in assay [1] and more than 75% in assay [2].
